Counter-ions that a name gives are not always drawn. Like-named read-outs stand apart in the source and are kept apart here.
Tests used:
[1] = system: Immature Sprague-Dawley rats (female, 18 days old); test: Rat Uterotrophic/Antiuterotrophic Bioassay (uterine wet weight); type: in vivo; settings: for uterine wet weight, 1 uG 17_-estradiol: 1 uG daily ip; for uterine wet weight, 10uG: 10 uG compound daily ip; for uterine wet weight, 100uG: 100 uG compound daily ip
Ishikawa cells = test: Ishikawa Cell Alkaline Phosphatase Assay; type: cell-based, human; settings: for % Activation: compound alone, percent of response related to 1 nM 17_estradiol; for EC50: Homo sapiens, Ishikawa, cells treated for 48 h
Protocol: Ishikawa cells were maintained in DMEM/F12 (50%:50%) containing phenol red + 10% fetal bovine serum and the medium was supplemented with 2 mM Glutamax, 1% Pen/Strap and 1 mM sodium pyruvate. Five days prior to the beginning of each experiment (treatment of cells) the medium was changed to phenol red-free DMEM/F12 + 10% dextran coated charcoal stripped serum. […] Sample population for at each dose was n=8.
50_L of lysis buffer (0.1 M Tris-HCl, pH 9.8, 0.2% Triton X-100) is added to each well. […] Plates are thawed at 37°C followed by the addition of 150_L of 0.1 M Tris-HCl, pH 9.8, containing 4 mM para-nitrophenylphosphate (pNPP) to each well (final concentration, 3 mM pNPP). Absorbance and slope calculations were made using the KineticCalc Application program (Bio-Tek Instruments, Inc., Winooski, VT). Results are expressed as the mean +/- S.D. of the rate of enzyme reaction (slope) averaged over the linear portion of the kinetic reaction curve (optical density readings every 5 minutes for 30 minutes absorbance reading).

TACE = molecular target: T1, TACE (Homo sapiens, UniProt P78536); test: Procedure for Measuring TACE Inhibition (fluorescent peptidyl substrate); type: biochemical; settings: read-out: TACE % inhibition at 1 micromolar; 1 micromolar compound
T1 construct: purchased Immunex
T1 sequence (P78536 215-824): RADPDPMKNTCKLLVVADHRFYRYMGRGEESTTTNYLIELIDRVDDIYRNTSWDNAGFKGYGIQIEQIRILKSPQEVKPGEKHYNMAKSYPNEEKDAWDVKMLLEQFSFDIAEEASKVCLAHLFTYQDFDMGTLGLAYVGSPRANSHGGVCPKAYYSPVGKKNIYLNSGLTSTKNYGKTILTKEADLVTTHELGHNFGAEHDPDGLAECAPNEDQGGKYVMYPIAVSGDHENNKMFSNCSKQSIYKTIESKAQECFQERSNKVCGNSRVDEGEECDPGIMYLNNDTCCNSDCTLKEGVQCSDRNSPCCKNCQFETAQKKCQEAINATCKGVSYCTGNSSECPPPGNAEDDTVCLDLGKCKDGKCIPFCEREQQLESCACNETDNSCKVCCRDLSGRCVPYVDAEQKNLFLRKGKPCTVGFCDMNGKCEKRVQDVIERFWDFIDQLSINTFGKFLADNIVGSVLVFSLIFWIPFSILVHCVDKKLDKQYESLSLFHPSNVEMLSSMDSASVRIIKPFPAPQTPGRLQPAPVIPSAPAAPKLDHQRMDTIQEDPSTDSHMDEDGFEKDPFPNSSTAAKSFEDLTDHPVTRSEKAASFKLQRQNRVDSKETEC
Protocol: Using 96-well black microtiter plates, each well receives a solution composed of 10 µL TACE (Immunex, final concentration 1µg/mL), 70µL Tris buffer, pH 7.4 containing 10% glycerol (final concentration 10 mM), and 10 µL of test compound solution in DMSO (final concentration 1µM, DMSO concentration <1%) and incubated for 10 minutes at room temperature. […] The reaction is read (excitation 340 nm, emission 420 nm) for 10 min. and the increase in fluorescence over time is plotted as a linear line. The slope of the line is calculated and represents the reaction rate. The linearity of the reaction rate is confirmed (r^2 >0.85). The mean (x±sem) of the control rate is calculated and compared for statistical significance (p<0.05) with drug-treated rates using Dunnett's multiple comparison test. […]
The reaction is read (excitation 340 nm, emission 420 nm) for 10 min. and the increase in fluorescence over time is plotted as a linear line. The slope of the line is calculated and represents the reaction rate.
The linearity of the reaction rate is confirmed (r^2 >0.85). The mean (x±sem) of the control rate is calculated and compared for statistical significance (p<0.05) with drug-treated rates using Dunnett's multiple comparison test.

In the case of `C[C@]12CC[C@@H]3c4ccc(O)cc4CC[C@H]3[C@@H]1CC[C@@H]2O` [17_-estradiol], the “uterine wet weight, 1 uG 17_-estradiol” value ([1]; control = 30.7 mg) is reported as 1 uG 17_-estradiol = 63.2 mg and the “uterine wet weight, 1 uG 17_-estradiol” value ([1]; control = 42.7 mg) is reported as 1 uG 17_-estradiol = 98.2 mg.
`Cc1c(-c2ccc(O)cc2)n(Cc2ccc(OCCN3CCCCC3)cc2)c2ccc(O)cc12` [Example 15, 2-(4-Hydroxy-phenyl)-3-methyl-1-[4-(2-piperidin-1-yl-ethoxy)-benzyl]-1H-indol-5-ol] was tested, and the “% Activation” value (Ishikawa cells; 48 h) was 1% activity (1% with 1 nM 17_-estradiol), the “uterine wet weight, 10uG” value ([1]; control = 30.7 mg) was 39.9 mg and the “uterine wet weight, 100uG + 1uG 17 -estradiol” value ([1]; 100 uG compound + 1 uG 17_ estradiol daily ip (antiestrogenicity), control = 30.7 mg) was 24.3 mg. The “uterine wet weight, 100uG” value ([1]; control = 30.7 mg) was 27.4 mg.
`COc1ccc(S(=O)(=O)C(C)(Cc2ccc(OCCN3CCCCC3)cc2)C(=O)NO)cc1` (centres unmarked) [Example 26] gave an inhibition at 1 µM (TACE) of 41%.
With `O=C(c1ccc(OCCN2CCCCC2)cc1)c1c(-c2ccc(O)cc2)sc2cc(O)ccc12` [Raloxifene, [2-(4-hydroxyphenyl)-6-hydroxybenzo[b]thien-3-yl][4-(1-piperidinyl0ethoxy]phenyl-methanone hydrochloride] the “% Activation” value (Ishikawa cells; 48 h) was 5% activity (5% with 1 nM 17_-estradiol), the “uterine wet weight, 10uG” value ([1]; control = 42.7 mg) was 47.5 mg and the “uterine wet weight, 100uG” value ([1]; control = 42.7 mg) was 43.2 mg.
With `CC/C(=C(\c1ccccc1)c1ccc(OCCN(C)C)cc1)c1ccccc1` [Tamoxifen] the “uterine wet weight, 10uG” value ([1]; control = 42.7 mg) was 69.6 mg and the “uterine wet weight, 100uG” value ([1]; control = 42.7 mg) was 71.4 mg.
In the case of `C[C@]12CC[C@@H]3c4ccc(O)cc4CC[C@H]3[C@@H]1C[C@@H](O)[C@@H]2O` [estriol], the EC50 (Ishikawa cells; read-out: ED50 values (95% C.I.), estrogenic activity by the alkaline phosphatase method, reference standards) is reported as 0.13 nM.
`C[C@]12CC[C@@H]3c4ccc(O)cc4CC[C@H]3[C@@H]1CCC2=O` [estrone] gave an EC50 (Ishikawa cells; 48 h, read-out: ED50 values (95% C.I.), estrogenic activity by the alkaline phosphatase method, reference standards) of 0.36 nM.
